Source: PMC8478281, “Targeting the FtsZ Allosteric Binding Site with a Novel Fluorescence Polarization Screen, Cytological and Structural Approaches for Antibacterial Discovery” (Journal of Medicinal Chemistry, 2021)
Converted amounts (≈) assume the structure as drawn. “And” between values parts separate entries of the source, which are not always exact repeats. Equal values may be shown once.

How the values were obtained:
[1] = biological target: T1, stabilized polymers of FtsZ from B. subtilis (Bacillus subtilis, UniProt P17865); test: Competition assay: displacement of probe (R)-5 from stabilized BsFtsZ-GMPCPP polymers; type: binding; settings: for Kd: stabilized polymers of FtsZ from B. subtilis, probe (R)-5, mean ± SEM, read-out: KD
T1 construct: made in house
T1 sequence (P17865 whole entry): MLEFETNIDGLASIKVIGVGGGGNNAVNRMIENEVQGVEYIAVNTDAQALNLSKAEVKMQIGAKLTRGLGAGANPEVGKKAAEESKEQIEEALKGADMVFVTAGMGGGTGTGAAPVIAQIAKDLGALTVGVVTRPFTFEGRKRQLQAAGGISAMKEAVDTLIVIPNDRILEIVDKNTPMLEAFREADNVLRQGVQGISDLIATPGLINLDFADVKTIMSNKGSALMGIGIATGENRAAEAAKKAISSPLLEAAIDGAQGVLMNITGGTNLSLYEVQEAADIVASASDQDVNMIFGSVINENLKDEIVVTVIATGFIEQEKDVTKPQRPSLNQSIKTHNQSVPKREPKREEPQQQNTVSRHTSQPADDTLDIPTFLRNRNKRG
Description: (§1) FtsZ (10–15 μM) was assembled in HEPES buffer, 10 mM MgCl2, 50 μM GMPCPP at 25 °C for 10 min, and then 0.15% (v/v) glutaraldehyde[36] (distilled grade for microscopy, TAAB Laboratories, U.K.) was added to the solution that was incubated at 25 °C for 10 min more. (This was the minimal glutaraldehyde concentration determined to stabilize FtsZ polymers specifically binding probe 1.) The remains of the cross-linking agent were quenched by adding 60 mM NaBH4, the sample was incubated on ice for 10 min and degassed.[36] Cross-linked polymers were centrifuged for 10 min at 8200g (5000 rpm) and 4 °C in 15 mL Falcon tubes employing a Rotina 380R (Hettich) centrifuge, the supernatant was removed and the pellet was resuspended in the same volume of HEPES buffer, 10 mM MgCl2, containing 5 μM GMPCPP. Fixed FtsZ polymers were active in binding assays after more than 2 days at 4 °C; they could also be frozen in liquid nitrogen with a small loss of binding capacity. […] Cross-linked polymers of SaFtsZ were similarly prepared.
(§2) Competition assays were performed by measuring, through the decrease in fluorescence anisotropy, the displacement of the fluorescent probes from stabilized FtsZ polymers. Increasing concentrations of competing ligands were added to the mixtures of cross-linked FtsZ polymers (10–15 μM) with probe 1 (3 μM), 7–8 μM FtsZ polymers with probe (S)-2 (3 μM), or 2–3 μM FtsZ polymers with (R)-5 (3 μM). HEPES buffer with 10 mM MgCl2 and 0.1 mM GMPCPP was employed, with a final volume of 0.5 mL, and the anisotropy measured at 25 °C. Under these conditions, the initial fraction of the probe bound was between 0.4 and 0.5. The fraction of the probe bound (Vb) was calculated [drawing 1] where rfree and rmax are the anisotropy values of the free and bound probes, respectively, and R is the ratio between the fluorescence intensities of the bound and free probe (Table S1). The binding data were plotted against the competing ligand concentration and fitted by competition equilibrium of the ligand and the probe for the same binding site. The resulting system of equations[50] was numerically solved using the Equigra v. 5.0 program,[33] which provided the best-fitted value of the competitor binding constant.

[2] = biological target: T2, stabilized SaFtsZ polymers (Staphylococcus aureus, UniProt P0A031); test: Competition assay with stabilized SaFtsZ polymers; type: binding; settings: read-out: KD (in parenthesis) (converted)
T2 construct: Full-length S. aureus FtsZ (SaFtsZ); made in house
T2 sequence (P0A031 whole entry): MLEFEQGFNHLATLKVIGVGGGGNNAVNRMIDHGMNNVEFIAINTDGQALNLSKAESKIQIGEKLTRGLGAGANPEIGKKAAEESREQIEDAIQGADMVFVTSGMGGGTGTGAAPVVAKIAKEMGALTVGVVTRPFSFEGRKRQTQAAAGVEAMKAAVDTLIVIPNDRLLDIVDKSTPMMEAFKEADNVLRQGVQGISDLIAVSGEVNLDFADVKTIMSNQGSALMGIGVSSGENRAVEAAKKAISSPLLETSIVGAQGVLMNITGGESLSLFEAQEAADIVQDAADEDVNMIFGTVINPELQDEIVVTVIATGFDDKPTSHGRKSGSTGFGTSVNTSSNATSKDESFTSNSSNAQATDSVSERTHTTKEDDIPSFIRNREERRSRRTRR
Description: Full-length S. aureus FtsZ (SaFtsZ) and the truncated protein SaFtsZ(12–315) were purified as described.[34] SaFtsZ was assembled in 50 mM MES, 50 mM KCl, 1 mM EDTA, pH 6.5 plus 10 mM MgCl2, and 0.1 mM GMPCPP.
as §1, §2

[3] = system: B. subtilis; test: Minimal division inhibitory concentration and cell division phenotype, B. subtilis; type: cell-based, Bacillus subtilis; settings: for minimal effective concentration: Bacillus subtilis, read-out: MDC B. subtilis
Description: (§3) B. subtilis 168 and Staphylococcus spp. were grown in cation adjusted Mueller–Hinton broth (CAMHB; Becton, Dickinson and Company) at 37 °C. B. subtilis SU570 were grown in the same medium at 30 °C. In all cases, the cells were grown to an absorbance of 0.1–0.2 at 600 nm and then incubated either with the compounds or DMSO vehicle. Microscopy assays and cell measurement were performed as previously described.[31] MIC values were determined by a broth macrodilution method.[51] MBC values were determined as the lowest concentration of inhibitor at which there was a 99.9% reduction in colony-forming units/mL compared to the inoculum. To construct a S. aureus strain expressing FtsZ-mCherry, the plasmid pCN-ftsZmch[9] was electroporated into RN4220 and 0.1 μM cadmium chloride (Sigma-Aldrich) was used to induce the expression of the construct under the control of the Pcad promoter.

[4] = system: S. aureus Mu50; test: Minimal division inhibitory concentration, S. aureus Mu50; type: cell-based; settings: Staphylococcus aureus, MU50, read-out: MDC S. aureus Mu50
Description: as §3

[5] = system: B. subtilis; test: Minimal growth inhibitory concentration (broth macrodilution), B. subtilis; type: cell-based, Bacillus subtilis; settings: Bacillus subtilis, read-out: MIC B. subtilis
Description: as §3

[6] = system: S. aureus Mu50; test: Minimal growth inhibitory concentration (broth macrodilution), S. aureus Mu50; type: cell-based, Staphylococcus aureus; settings: Staphylococcus aureus, MU50, read-out: MIC S. aureus Mu50
Description: as §3

[7] = Solubility in HEPES buffer with 2% DMSO, spectrophotometric; type: physicochemical; settings: HEPES buffer containing 2% DMSO, 25 °C, aqueous buffer, kinetic from dmso stock; HEPES buffer pH 6.8 containing 2% DMSO
Description: 3.2. Solubility of Compounds. Stock solutions of compounds were prepared in
DMSO (spectroscopic grade, Merck) a nd stored at -20 °C. Compound solubility in 50
mM HEPES-KOH, 50 mM KCl, 1 mM EDTA, pH 6.8 (HEPES buffer) containing 2%
DMSO was determined spectrophotometrically, monitoring the linear correlation
between the absorbance and the compound concentration and the absence of light
scattering. The solutions were optionally centrifuged at 100000 rpm for 20 min at 25 °C
in a TLA100 rotor with a Beckman Optima Max -XP ultracentrifuge.

[8] = system: B. subtilis 168; test: Cell length of B. subtilis 168 incubated with FtsZ inhibitors; type: cell-based, Bacillus subtilis; set-up: unit of the concentration uncertain; unit not given here; settings: B. subtilis 168, 3 h
Description: (§4) Figure 4 Fluorescence anisotropy screen for FtsZ allosteric inhibitors combined with cell-based methods. (A) Screen for FtsZ inhibitors employing the fluorescence anisotropy of probe (S)-2 (3 μM) and stabilized FtsZ-GMPCPP polymers (8 μM binding sites). […] Control values with the corresponding concentrations of dimethyl sulfoxide (DMSO) vehicle (2% void and gray circles; 4%, black circle) are also shown. […] Raw data plots (n ≥ 30) are shown with the mean values marked (statistics in Table S2). The cells were incubated for 3 h with each compound, and cell lengths were measured. (D) Representative phase-contrast images of cells after 3 h with 7 or 9 (0.75 mM each). (E) Cellular localization of FtsZ-GFP in B. subtilis SU570 following growth for 1.5 h in the absence (inset) and presence of 7 (0.2 mM). Bars, 10 μm.
as §3, with “MBC values were determined as the lowest concentration of inhibitor at which there was a 99.9% reduction in colony-forming units/mL compared to the inoculum.” left out, “promoter. […]” for “promoter.”

[9] = biological target: T3, stabilized FtsZ-GMPCPP polymers (BsFtsZ) (Bacillus subtilis, UniProt P17865); test: Competition assay: displacement of probe (S)-2 from stabilized FtsZ-GMPCPP polymers; type: binding; settings: KD, (S)-2 3 μM, 8 μM binding sites
T3 construct: made in house
T3 sequence (P17865 whole entry): as the sequence (P17865 whole entry) above
Description: as §1, §2

[10] = biological target: T4, stabilized FtsZ-GMPCPP polymers (Bacillus subtilis, UniProt P17865); test: Fluorescence anisotropy screen with probe (S)-2 at two compound concentrations; type: binding; settings: probe (S)-2 3 μM, compound 20 and 200 μM
T4 construct: made in house
T4 sequence (P17865 whole entry): as above
Description: Once the fluorescence method for ligand binding into the interdomain cleft was set up, we evaluated its potential to screen for FtsZ allosteric inhibitors. Complementary to this screen, cytological profiling tests of the identified binders allow ascertaining their ability to target FtsZ in bacterial cells. Fluorescence anisotropy measurements of probe (S)-2 at two concentrations of each tested compound (20 and 200 μM) were acquired; the solubility range of positively testing compounds was determined spectrophotometrically. […] The promiscuous inhibitors resveratrol,[40] plumbagin,[41] and tiplaxtinin[42] […] It should be noticed that aggregating compounds may sequester the protein or the probe or may scatter highly polarized light, potentially interfering with the fluorescence anisotropy measurements. Colored and fluorescent compounds can also interfere. Compounds initially testing positive in the anisotropy screen should thus be checked for any unexpected changes of the total fluorescence intensity in the same samples, as well as for any artefactual effects on replicates omitting FtsZ.
Figure 4 Fluorescence anisotropy screen for FtsZ allosteric inhibitors combined with cell-based methods. (A) Screen for FtsZ inhibitors employing the fluorescence anisotropy of probe (S)-2 (3 μM) and stabilized FtsZ-GMPCPP polymers (8 μM binding sites). The anisotropy values of the partially bound probe (void black circles), the free probe (void gray circles), and the values with two concentrations of each compound, 20 μM (gray circles) and 200 μM (black circles) are shown. Control values with the corresponding concentrations of dimethyl sulfoxide (DMSO) vehicle (2% void and gray circles; 4%, black circle) are also shown. (B) Chemical structures of synthetic ligands 6–26. (C) Effects of low-affinity inhibitors 6, 7, and 9 on B. subtilis 168 cell division. Raw data plots (n ≥ 30) are shown with the mean values marked (statistics in Table S2). The cells were incubated for 3 h with each compound, and cell lengths were measured. (D) Representative phase-contrast images of cells after 3 h with 7 or 9 (0.75 mM each). (E) Cellular localization of FtsZ-GFP in B. subtilis SU570 following growth for 1.5 h in the absence (inset) and presence of 7 (0.2 mM). Bars, 10 μm.
as §2

[11] = system: B. subtilis 168; test: Cell length of B. subtilis 168 incubated with FtsZ inhibitors; type: cell-based, Bacillus subtilis; set-up: unit not given here; settings: B. subtilis 168, 3 h, mean and standard error, n ≥ 30
Description: as §4
as §3, with “MBC values were determined as the lowest concentration of inhibitor at which there was a 99.9% reduction in colony-forming units/mL compared to the inoculum.” left out, “promoter. […]” for “promoter.”

[12] = system: S. aureus; test: Minimal bactericidal concentration; type: cell-based; settings: Staphylococcus aureus; 99.9% reduction in colony-forming units/mL
Description: as §3

[13] = MTT cytotoxicity assay; type: cell-based; settings: human, IMR90 lung fibroblast cells; IMR90, 100 µM, relative to vehicle
Description: The sensitivity of the IMR90 cell line to compounds was tested through a standard 3-(4,5-dimethylthiazol-2-yl)-2,5-diphenyltetrazolium bromide (MTT) assay.[52] The results were reported as the viability percentage of the tested compound relative to vehicle (DMSO), obtained from two or three independent experiments performed in triplicate.

Row | Compound | fold weaker affinity and MDC than the (R)-enantiomer [1] | Kd [1] [µM] | Kd [2] [µM] | minimal effective concentration [3] [µM] | minimal effective concentration [4] [µM] | MIC [5] [µM] | MIC [6] [µM] | solubility [7] [µM] | length ([8]; 10 (unit uncertain) as printed) | Kd [9] | result of the anisotropy screen, in words [10] | length ([11]; 0.5 mM) | length ([11]; 0.75 mM) | fold lower concentration inhibiting B. subtilis division than 3-methoxybenzamide ([3]; 3-methoxybenzamide value from ref 44) [fold] | MBC [12] [µM] | viability at 100 µM [13] [%] | length ([8]; 2.5 (unit uncertain) as printed) | length ([8]; 5 (unit uncertain) as printed)
1 | CCC[C@@H](COc1ccc(F)c(C(N)=O)c1F)Nc1cccc(C(F)(F)F)c1 [(S)-26] | 10–20 fold | 3.8 ± 0.2 | 7 | > 10 | 100 | 50 (≈ 20.1 µg/mL) | 100 (≈ 40.2 µg/mL) | 100 (≈ 40.2 µg/mL) | 4.9 ± 0.2 | – | – | – | – | – | – | – | – | –
2 | NC(=O)c1cccc(NCc2cccc(Cl)c2)c1 [Compound 6] | – | – | – | – | – | – | – | ≥ 100 | – | 233 µM and ~200 µM | weak binders | 5.9 ± 0.3 | 8.0 ± 0.2 | – | – | – | – | –
3 | CN(Cc1cccc(Cl)c1)c1cccc(C(N)=O)c1 [Compound 7] | – | – | – | – | – | – | – | ≥ 100 | – | 159 µM and ~200 µM | weak binders | 8.5 ± 0.3 | 24.7 ±0.8 | ~20 | – | – | – | –
4 | NC(=O)c1ccc(NCc2cccc(Cl)c2)cc1 [Compound 9] | – | – | – | – | – | – | – | ≥ 100 | – | 196 µM and ~200 µM | weak binders | 6.1 ± 0.3 | 11.6 ±0.4 | – | – | – | – | –
5 | NC(=O)c1c(F)ccc(OCc2cccc(Cl)c2)c1F [Compound 18, 3-[(3-Chlorobenzyl)oxy]-2,6-difluorobenzamide] | – | 1.3 ± 0.1 | – | 10 | 50 | 25 (≈ 7.44 µg/mL) | 100 (≈ 29.8 µg/mL) | ≥ 100 | – | – | – | – | – | – | 100 (≈ 29.8 µg/mL) | 90 ± 7 | – | –
6 | NC(=O)c1c(F)ccc(OCCNc2cccc(C(F)(F)F)c2)c1F [Compound 25, 2,6-Difluoro-3-(2-{[3-(trifluoromethyl)phenyl]amino}ethoxy)benzamide] | – | 1.9 ± 0.2 | 0.3 | 5 | 50 | 10 (≈ 3.6 µg/mL) | 100 (≈ 36 µg/mL) | 100 (≈ 36 µg/mL) | – | – | – | – | – | – | 100 (≈ 36 µg/mL) | 88 ± 1 | 4.8 ± 0.1 | 27.4 ±0.9
7 | NC(=O)c1c(F)ccc(OCc2nc3cc(Cl)cnc3s2)c1F [PC190723, reference compound] | – | < 0.1 | < 0.1 | 2.5 | 1 | 5 (≈ 1.78 µg/mL) | 5 (≈ 1.78 µg/mL) | 10 (≈ 3.56 µg/mL) | – | < 0.1 µM | – | – | – | – | 5 (≈ 1.78 µg/mL) | – | – | –
